# Assay results as given in patent publication US12611423B2, “Medical use of tafoxiparin” (DILAFOR AB, priority 2022, dated 2026).
# System: term pregnant, nulliparous women with an unripe cervix
# Assay: Clinical phase II trial PPL17 (Parts A and B), subcutaneous tafoxiparin vs placebo
# Assay type: in vivo, human
# Conditions: for Labor induced with PGE-1, % of women: placebo 10.2%; for Fetal distress as indication for operative delivery (ODFD), % of women: placebo 22.7%; for patients with operative delivery, % / women needing instrumental delivery (FIG. 4, vaginal mode of partus): placebo 45.5%; for Labor induced with amniotomy, % of women: placebo 56.8%; for Labor induction with Balloon catheter, % of women: placebo 58.0%; for Labor induced, % of women: placebo 70.5%; for women needing instrumental delivery or caesarian section to reach partus (FIG. 5): placebo 52%; for women reaching partus by vaginal delivery with no need for instrumental delivery nor caesarian section (FIG. 5): placebo 48%; for number of subjects (women) that reach spontaneous onset of labor / subjects (women) that reach spontaneous onset of labor, % of n: cumulative, n = 37
# Procedure: A clinical phase II trial is performed as a randomized, double-blind, placebo-controlled, parallel-group proof of concept study (Part A) with a conditional dose finding follow up study (Part B) to evaluate the efficacy, safety, tolerability and dose response of subcutaneously administered tafoxiparin as a supplement to induction therapy in term pregnant, nulliparous women with an unripe cervix. The study is performed in Sweden and Finland (PPL17), and an EMA (European Medicines Agency) description of the study can be found on the EU Clinical Trials Register web (www.clinicaltrialsregister.eu/ctr-search/search?query=PPL17).
# A total of 170 term pregnant women are randomized to receive either 300 mg of tafoxiparin, or corresponding placebo (vehicle), administered subcutaneously every 24±3 hours and up to a total of 7 doses, or until partus (Part A).
# In the dose finding follow up study (Part B), a total of 164 term pregnant women are randomized to receive either 75 or 150 mg of tafoxiparin administered subcutaneously every 24±3 hours […] and up to a total of 7 doses, or until partus.
# To assess the efficacy of tafoxiparin on cervical ripening/cervical ripening rate, during and up to the first seven days of treatment, measured by Bishop score. All women must be examined to check the cervical state before enrollment.
# Tafoxiparin/Placebo is supplied by Dilafor AB to the site as kits designed to constitute 300 mg of tafoxiparin or placebo for daily administration. Apart from the active substance, each ml of study drug will constitute 0.015 M phosphate buffer. The study medication kit for each patient will contain 8 doses consisting of 2 vials containing a minimum extractable volume of 1.6 ml of 150 mg/ml of tafoxiparin or placebo. One dose is a reserve dose in case a dose is rendered unusable. The investigational product should be administered subcutaneously every 24±3 hours by the site staff for up to 7 doses, or until partus. At each dosing time 1.0 ml of the drug will be extracted from each of the 2 vials and injected as separate s.c. injections in the abdominal or hip region.
# Tafoxiparin/Placebo is supplied by Dilafor AB to the site as kits designed to constitute 75 or 150 mg of tafoxiparin for daily administration. Apart from the active substance, each ml of study drug will constitute 0.015 M phosphate buffer. The study medication kit for each patient will contain 8 doses consisting of 2 vials for each injection occasion containing a minimum extractable volume of 1.6 ml of 150 mg/ml of tafoxiparin or placebo. For subjects receiving 75 mg of tafoxiparin, one vial will contain active substance and one containing placebo. For subjects receiving 150 mg of tafoxiparin, both vials will contain active substance. One dose is a reserve dose in case a dose is rendered unusable. The investigational product should be administered subcutaneously every 24±3 hours by the site staff for up to 7 doses, or until partus. At each dosing time, 0.5 ml of the drug will be extracted from each of the 2 vials and injected as separate s.c. injections in the abdominal or hip region.
# If the subject is found to be eligible for the study, they will be randomized to study treatment, i.e. 300 mg of tafoxiparin or corresponding placebo daily (Part A), or 75 or 150 mg daily (Part B).
# The study medication will be administered subcutaneously in the abdominal or hip region for up to a total of 7 doses or until labor induction or spontaneous onset of labor. If the cervix is still unripe after 7 doses of IMP, the patient is given cervical balloon catheter as a mean of labor induction.
# Subjects who enter into spontaneous onset of labor after 1-7 doses of IMP should be managed according to clinical routines.
# Subjects who are given 4-7 doses without entering into spontaneous onset of labor, but with a ripe cervix (Bishop Score ≥6), should be induced into labor by amniotomy and oxytocin treatment, but not before 4 treatment doses have been given. […]
substance,measurement,setting,value
tafoxiparin,"Labor induced with oxytocin, number of women","150 mg, n = 85",38
same,"Labor induced, number of women","150 mg, n = 85",48
same,"Labor induction with Balloon catheter, number of women","150 mg, n = 85",37
same,Number of patients with operative delivery,"150 mg, n = 85",41
same,"Labor induced with PGE-1, % of women","150 mg, n = 85",8.2%
same,"Fetal distress as indication for operative delivery (ODFD), % of women","150 mg, n = 85",23.5%
same,"patients with operative delivery, %","150 mg, n = 85",48.2%
same,"Labor induced with oxytocin, % of women","150 mg, n = 85, placebo 54.5%",44.7%
same,"Labor induced with amniotomy, % of women","150 mg, n = 85",45.9%
same,"Labor induction with Balloon catheter, % of women","150 mg, n = 85",43.5%
same,"Labor induced, % of women","150 mg, n = 85",56.5%
same,"women needing instrumental delivery (FIG. 4, vaginal mode of partus)","150 mg, women with spontaneous onset of labor, 9 of the 32 women, p-value 0.422",28.1%
same,women needing instrumental delivery or caesarian section to reach partus (FIG. 5),"150 mg, women with spontaneous onset of labor, 13 of 36 women",36.1%
same,women reaching partus by vaginal delivery with no need for instrumental delivery nor caesarian section (FIG. 5),"150 mg, women with spontaneous onset of labor, 23 of 36 women",63.9%
same,"time point of spontaneous onset of labor (FIG. 3, change of Bishop score)","300 mg and 150 mg, women with spontaneous onset of labor",achieved spontaneous onset of labor at an earlier time point than women treated with 75 mg tafoxiparin and placebo
same,women achieving spontaneous onset of labor (FIG. 1),"300 mg s.c. once daily up to 7 doses, 37 women of 90, p-value=0.089 (part A 0.080), placebo 28.7%",41.1%
same,development day-by-day towards a spontaneous onset of labor,"300 mg, 150 mg, 75 mg, Table 3",shows a dose-response relationship
same,women reaching spontaneous onset of labor with uncomplicated delivery,"300 mg, 27 of the 33 women, placebo 54.5%",81.8%
same,number of subjects (women) that reach spontaneous onset of labor,"300 mg, Study day 1",2
same,"subjects (women) that reach spontaneous onset of labor, % of n","300 mg, Study day 1",(5%)
same,number of subjects (women) that reach spontaneous onset of labor,"300 mg, Study day 2",11
same,"subjects (women) that reach spontaneous onset of labor, % of n","300 mg, Study day 2",(30%)
same,number of subjects (women) that reach spontaneous onset of labor,"300 mg, Study day 3",18
same,"subjects (women) that reach spontaneous onset of labor, % of n","300 mg, Study day 3",(49%)
same,number of subjects (women) that reach spontaneous onset of labor,"300 mg, Study day 4",23
same,"subjects (women) that reach spontaneous onset of labor, % of n","300 mg, Study day 4",(62%)
same,number of subjects (women) that reach spontaneous onset of labor,"300 mg, Study day 5",30
same,"subjects (women) that reach spontaneous onset of labor, % of n","300 mg, Study day 5",(81%)
same,number of subjects (women) that reach spontaneous onset of labor,"300 mg, Study day 6",34
same,"subjects (women) that reach spontaneous onset of labor, % of n","300 mg, Study day 6",(92%)
same,number of subjects (women) that reach spontaneous onset of labor,"300 mg, Study day 7",37
same,"subjects (women) that reach spontaneous onset of labor, % of n","300 mg, Study day 7",(100%)
same,"Fetal distress as indication for operative delivery (ODFD), number of women","300 mg, n = 91",11
same,"Labor induced with PGE-1, number of women","300 mg, n = 91",5
same,"Labor induced with amniotomy, number of women","300 mg, n = 91",50
same,"Labor induced with oxytocin, number of women","300 mg, n = 91",45
same,"Labor induced, number of women","300 mg, n = 91",53
same,"Labor induction with Balloon catheter, number of women","300 mg, n = 91",42
same,Number of patients with operative delivery,"300 mg, n = 91",32
same,"Labor induced with PGE-1, % of women","300 mg, n = 91",5.5%
same,"Fetal distress as indication for operative delivery (ODFD), % of women","300 mg, n = 91",12.1%
same,"patients with operative delivery, %","300 mg, n = 91",35.2%
same,"Labor induced with oxytocin, % of women","300 mg, n = 91, placebo 54.5%",49.5%
same,"Labor induced with amniotomy, % of women","300 mg, n = 91",54.9%
same,"Labor induction with Balloon catheter, % of women","300 mg, n = 91",46.2%
same,"Labor induced, % of women","300 mg, n = 91",58.2%
same,"women needing instrumental delivery (FIG. 4, vaginal mode of partus)","300 mg, women with spontaneous onset of labor, 6 of the 33 women, p-value=0.048 (part A 0.053)",18.2%
same,women needing instrumental delivery or caesarian section to reach partus (FIG. 5),"300 mg, women with spontaneous onset of labor, 10 of the 37 women",27%
same,women reaching partus by vaginal delivery with no need for instrumental delivery nor caesarian section (FIG. 5),"300 mg, women with spontaneous onset of labor, 27 of the 37 women",73%
same,effect on achieving spontaneous onset of labor,"all three doses 300 mg, 150 mg and 75 mg",effective for achieving spontaneous onset of labor
same,effect on mode of partus,"all three doses 300 mg, 150 mg and 75 mg, compared to placebo",effective for a person to reach partus by vaginal delivery and with less need for instrumental delivery or caesarian section
same,effect on need for instrumental delivery,"all three doses (300 mg, 150 mg and 75 mg), women with spontaneous onset of labor, compared to placebo",effective in reducing the need for instrumental delivery
same,effect on need for intervention to achieve onset of labor,"all three doses, compared to placebo",reduced the need for intervention in order to achieve onset of labor
same,time point of achieving a ripe cervix,"any one of the three doses 75 mg, 150 mg and 300 mg, vs placebo",achieve a ripe cervix at an earlier time point than women that have been treated with placebo
same,need for operative delivery (caesarean section and instrumental delivery) due to fetal distress,conclusion of the clinical study,reduction of the need for operative delivery
same,effect on cervical ripening (FIG. 3),doses 300 mg and 150 mg,beneficial effect on cervical ripening
same,estimated cervical ripening rate measured by Bishop score (FIG. 6),"first 7 days of treatment, all three doses (300 mg, 150 mg and 75 mg) compared to placebo",higher
same,"labor time up to vaginal delivery (partus) (FIG. 2, Kaplan-Meier)","women with spontaneous onset of labor, 300 mg (p=0.070), 150 mg (p 0.654), 75 mg (p 0.114) vs placebo",shorter labor time up to vaginal delivery (partus) compared to placebo
